Experimental data reported in patent US20020193425A1, “Cancer chemopreventative compounds and compositions and methods of treating cancers” (priority 2001, published 2002).
In brackets after ≈: the same amount, converted by molar mass.

Columns and labels:
BV173 [1] = experiment: Cytotoxicity, viability by Trypan blue exclusion; conditions: four days
Protocol: (§7) HL-60, K562, U937, Reh and Daudi cells were obtained from the American Type Culture Collection (Rockville, Md.). Kasumi-1, NB4, BV173, SUPB13, and RS4;11 cells were provided by the Section of Hematology/Oncology, University of Illinois College of Medicine, Chicago, Ill. All cell lines were maintained in suspension culture using RPMI 1640 medium supplemented with 10% heat-inactivated fetal bovine serum, 100 units of penicillin/ml and 100 μg of streptomycin/ml at 37° C. in a humidified atmosphere of 5% CO2 in air. All cells were routinely tested for mycoplasma contamination.
(§8) Cellular viability was monitored by Trypan blue exclusion. Inhibition of [3H]thymidine incorporation into DNA was determined to assess the level of cell proliferation as well as DNA synthesis inhibition. […] The filters were counted using a Microbeta™ liquid scintillation counter (Wallac, Turku, Finland) with scintillation fluid. Finally, the percentage of [3H]thymidine incorporation per 10^6 cells was calculated by dividing the dpm of sample-treated cells by the dpm of DMSO-treated cells.
(§9) ^aViability was determined by Trypan blue exclusion in duplicate samples. […] Results are expressed as median inhibitory cell concentrations of two independent experiments (±standard deviations).

[2] = Cytotoxicity, viability by Trypan blue exclusion; conditions: human, K562 cells
Protocol: as §7
Cellular viability was monitored by Trypan blue exclusion. Inhibition of [3H]thymidine incorporation into DNA was determined to assess the level of cell proliferation as well as DNA synthesis inhibition. Cells were treated with test samples for four days and then placed into 96-well plates (100 μl) and treated with [3H]thymidine (0.5 μCi/ml, 65 Ci/mmol) for 18 h at 37° C. in a 5% CO2 incubator. Cells then were collected on glass fiber filters using a TOMTEC Harvester 96®. The filters were counted using a Microbeta™ liquid scintillation counter (Wallac, Turku, Finland) with scintillation fluid. Finally, the percentage of [3H]thymidine incorporation per 10^6 cells was calculated by dividing the dpm of sample-treated cells by the dpm of DMSO-treated cells.
as §9

U937 = experiment: Cytotoxicity, viability by Trypan blue exclusion; conditions: four days
Protocol: as §7, §8, §9

[3] = Cytotoxicity, viability by Trypan blue exclusion; conditions: human, U937 cells, Cytotoxicity (IC50, ng/ml), four days
Protocol: as §7, §8, §9

Kasumi-1 [4] = experiment: NSE expression (monocyte marker); type: cell-based; conditions: 4 days
Protocol: (§1) Cell lines were tested using a 4-day incubation protocol, unless otherwise specified.
(§2) 2) NBT/NSE/SE. Evaluation of NBT reduction was used to assess the ability of sample-treated cells to produce superoxide when challenged with TPA. A 1:1 (v/v) mixture of a cell suspension (10^6 cells) and TPA/NBT solution (2 mg/ml NBT and 1 μg/ml TPA in phosphate buffer saline (PBS)) was incubated for 1 h at 37° C. Then, cells were smeared on glass slides, and counterstained with 0.3% (w/v) safranin O in methanol. Positive cells reduce NBT yielding intracellular black-blue formazan deposits. NSE/SE are monocytic/granulocytic esterases that can be visualized by cytochemical staining using commercially available kits (α-Naphthyl Acetate Esterase and Naphthol As-D Chloroacetate Esterase kits, Sigma Chemical Co., St. Louis, Mo.). Positive-stained cells were quantified by microscopic examination of >200 cells. Results were expressed as a percentage of positive cells.
(§3) Concentration-dependent effect of brusatol on: (a) NBT-reduction (monocyte/granulocyte marker) of HL-60, K562, NB4, U937, and BV173 and (b) NSE expression (monocyte marker) in K562, Kasumi-1, NB4, and BV173 cells, respectively. Data points are the mean of duplicate samples.

BV173 [5] = experiment: NSE expression (monocyte marker); type: cell-based; conditions: 4 days
Protocol: as §1, §2, §3

K562 [6] = experiment: NSE expression (monocyte marker); type: cell-based; conditions: 4 days
Protocol: as §1, §2, §3

NB4 = experiment: NSE expression (monocyte marker); type: cell-based; conditions: 4 days
Protocol: as §1, §2, §3

HL-60 cells = experiment: Membrane phenotype, cell surface antigen by flow cytometry; type: cell-based, human; conditions: Brusatol 25 ng/ml, 4-day protocol
Protocol: as §1
(§4) 3) Determination of cell surface antigen by flow cytometry. Cells (10^6) were washed with PBS and then incubated for 30 min at room temperature with respective monoclonal antibodies, washed with 20 volumes of diluent (PBS with 0.1% sodium azide and 1% BSA), and resuspended in 0.5 ml of fresh diluent for evaluation. Necrotic cells were excluded from the analysis by propidium iodide (PI) staining. The following mAbs (Sigma, St. Louis, Mo.) were used to assess the maturation level of myeloid cell lines: antiCD15 (Leu M1), antiCD-11b (OKM1), antiCD14 and antiCD13. The following mAbs (Sigma, St. Louis, Mo.) were used to assess the maturation level of lymphocytic cell lines: antiCD20, antiHLA-DR and antikappa light chain.
(§5) Cells were induced to differentiate with the indicated concentrations of brusatol using a 4-day protocol and then analyzed for membrane markers of differentiation as described under “Materials and methods”. Results are expressed as the specific mean fluorescence intensity (ratio of antigen antibody flourescence over isotype antibody fluorescence), and represents the mean of two independent studies.

K562 [7] = experiment: NBT-reduction differentiation assay, leukemic panel; type: cell-based; conditions: 4 days
Protocol: as §1, §2, §3

[8] = Withdrawal assays, growth and differentiation of HL-60 cells; type: cell-based, human; conditions: human, HL-60 cells
Protocol: The irreversibility of brusatol effects on growth and differentiation of HL-60 cells was tested using withdrawal assays during a 4-day experiment.
The assay lasted for 4 days (96 h) and then, cells were analyzed for viability and differentiation markers. […] Results are shown as the mean of duplicate samples (±standard deviation).

Daudi cells = experiment: Membrane markers of B-lymphocyte maturation by flow cytometry; type: cell-based; conditions: brusatol (10 ng/ml), control 92.5
Protocol: as §1, §4
(§6) Finally, various membrane markers of B-lymphocyte maturation (i.e., CD20, superficial light chain kappa and HLA-DR) in SUPB13, RS4;11, Reh, Daudi and DHL-6 were analyzed. Few changes were observed, but brusatol induced a small increase in CD20 with DHL-6 cells (197.5 control vs. 225.3 brusatol (5 ng/ml), specific mean fluorescence intensity), and a larger increase of HLA-DR in Daudi cells (92.5 control vs. 244.9 brusatol (10 ng/ml), specific mean fluorescence intensity).

DHL-6 cells = experiment: as above; type: cell-based; conditions: brusatol (5 ng/ml), control 197.5
Protocol: as §1, §4, §6

HL-60 = experiment: NBT-reduction differentiation assay, leukemic panel; type: cell-based, human; conditions: 4 days
Protocol: as §1, §2, §3

Kasumi-1 [9] = experiment: Membrane phenotype, cell surface antigen by flow cytometry; type: cell-based; conditions: 4-day protocol
Protocol: as §1, §4, §5

BV173 [10] = experiment: as above; type: cell-based; conditions: 4-day protocol
Protocol: as §1, §4, §5

K562 cells = experiment: as above; type: cell-based; conditions: Brusatol 25 ng/ml, 4-day protocol
Protocol: as §1, §4, §5

NB4 cells = experiment: as above; type: cell-based; conditions: Brusatol 10 ng/ml, 4-day protocol
Protocol: as §1, §4, §5

U937 cells = experiment: as above; type: cell-based; conditions: Brusatol 12.5 ng/ml, 4-day protocol
Protocol: as §1, §4, §5

RS4;11 cells = experiment: as above; type: cell-based; conditions: Brusatol 25 ng/ml, 4-day protocol
Protocol: as §1, §4, §5

in vitro = conditions: human
Protocol: Human blood (20 ml) was collected in heparinized sterile tubes and white blood cells were separated using Ficoll reagent (8 ml/5 ml blood diluted in 15 ml Hank's buffered solution). After centrifugation at low speed (1500 rpm) for 30 min, the white coat was removed and washed 3-times with Hank's buffered solution. The cell pellet was resuspended in RPMI 1640 medium supplemented with 10% FBS. This preparation contained >90% lymphocytes and <5% monocytes, as determined by Wright-Giemsa staining.
Cellular viability was monitored by Trypan blue exclusion.
as §9

[11] = tested on: metastatic breast cancer and malignant melanoma; conditions: phase II trials, adult patients with metastatic breast cancer and malignant melanoma; cited from earlier work

For `COC(=O)[C@@]12OC[C@]34[C@H]([C@@H](O)[C@@H]1O)[C@@]1(C)CC(=O)C(O)=C(C)[C@@H]1C[C@H]3OC(=O)[C@H](OC(=O)C=C(C)C)[C@@H]24` [compound 1, brusatol], the “Cytotoxicity (IC50, ng/ml)” value (BV173 [1]; listed as Brusatol) was 5 ± 1.4 ng/mL, the “Cytotoxicity (IC50, ng/ml)” value (BV173 [1]; listed as brusatol) was “less than 25 ng/ml” and the IC50 at 4 days [2] was greater than 0.1 µg/mL. For the same compound, the viability at 4 days, 100 ng/ml [2] was roughly 90%, the “Cytotoxicity (IC50, ng/ml)” value (U937) was 12.5 ± 1.1 ng/mL and the IC50 at 4 days [3] was less than 0.025 µg/mL. The “upregulated expression of NSE” value (Kasumi-1 [4]) was “approximately 50%”, the “upregulated expression of NSE” value (BV173 [5]) was “approximately 35%” and the “upregulated expression of NSE” value (K562 [6]) was “approximately 50%”. For the same compound, the “upregulated expression of NSE” value (NB4) was “approximately 50%”, the “CD11b, specific mean fluorescence intensity” value (HL-60 cells) was 2.2 ± 0.5 and the “CD13, specific mean fluorescence intensity” value (HL-60 cells) was 266.1 ± 55.7. For the same compound, the “CD14, specific mean fluorescence intensity” value (HL-60 cells) was 1.0, the “CD15, specific mean fluorescence intensity” value (HL-60 cells) was 177.1 ± 8.7 and the “NBT-reduction, peak induction” value (K562 [7]) was 75%. The viability at 48 h, 12.5 ng/ml ([8]; 12.5 ng/ml, 48 h exposure) was greater than 80%, the viability at 72 h, 12.5 ng/ml ([8]; 12.5 ng/ml, 72 h exposure) was 56% and the viability at 96 h, 12.5 ng/ml ([8]; 12.5 ng/ml, 96 h exposure) was 45%. The selectivity ratio ([8]; 2-day protocol versus 4-day protocol, read-out: increase in selectivity (differentiation vs cytotoxicity)) was 10, the IC50 at 4 days ([8]; 4-day protocol, read-out: cytotoxic IC50) was 0.025 µg/mL (≈ 0.048 µM) and the IC50 at 2 days ([8]; 2 day-protocol, read-out: cytotoxic IC50) was 0.25 µg/mL (≈ 0.48 µM). For the same compound, the “HLA-DR, specific mean fluorescence intensity” value (Daudi cells) was 244.9, the “CD20, specific mean fluorescence intensity” value (DHL-6 cells) was 225.3 and the “NBT-reduction, peak induction” value (HL-60) was 75%. For the same compound, the “membrane markers of differentiation, change between control and treated cells” value (Kasumi-1 [9]) was “did not show any changes”, the “membrane markers of differentiation, change between control and treated cells” value (BV173 [10]) was “did not show any changes” and the “CD11b, specific mean fluorescence intensity” value (K562 cells) was 1.0 ± 0.1. For the same compound, the “CD13, specific mean fluorescence intensity” value (K562 cells) was 1.4 ± 0.2, the “CD14, specific mean fluorescence intensity” value (K562 cells) was 1.0 and the “CD15, specific mean fluorescence intensity” value (K562 cells) was 4.6 ± 1.1. The “CD11b, specific mean fluorescence intensity” value (NB4 cells) was 1.2 ± 0.5, the “CD13, specific mean fluorescence intensity” value (NB4 cells) was 156.1 ± 54.3 and the “CD14, specific mean fluorescence intensity” value (NB4 cells) was 1.3. The “CD15, specific mean fluorescence intensity” value (NB4 cells) was 18.5 ± 0.4, the “CD11b, specific mean fluorescence intensity” value (U937 cells) was 2.5 ± 0.2 and the “CD13, specific mean fluorescence intensity” value (U937 cells) was 55.7 ± 1.1. For the same compound, the “CD14, specific mean fluorescence intensity” value (U937 cells) was 9.6, the “CD15, specific mean fluorescence intensity” value (U937 cells) was 28.5 ± 4.3 and the “CD11b, specific mean fluorescence intensity” value (RS4;11 cells) was 1.2 ± 0.1. For the same compound, the “CD13, specific mean fluorescence intensity” value (RS4;11 cells) was 1.3 ± 0.2 and the “CD15, specific mean fluorescence intensity” value (RS4;11 cells) was 151.9 ± 42.1.
In the case of `COC(=O)[C@@]12OC[C@]34[C@H]([C@@H](O)[C@@H]1O)[C@@]1(C)CC(=O)C(O)=C(C)[C@@H]1C[C@H]3OC(=O)[C@H](OC(=O)/C=C(\C)C(C)C)[C@@H]24` [compound 2, bruceantin], the IC50 at 3 days (in vitro) is given as greater than 0.05 µg/mL and the objective tumor regressions [11] is given as “No objective tumor regressions were observed”.
